The text below walks through data of patent publication US10344025B2, “GLS1 inhibitors for treating disease” (Board of Regents, The University of Texas System, priority 2014, dated 2019).

The first assay deals with purified recombinant human GAC (GLS1) (Homo sapiens (Human), UniProt O94925). As to the kind of experiment: GLS1 Enzymatic Activity Assay (dual-coupled enzymatic assay, resorufin/Amplex UltraRed readout).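 Further: glutamate from GAC coupled via glutamate oxidase and peroxidase to resorufin, read as fluorescence (ex 530, em 590 nm) kinetically or at 20 min, four-parameter logistic IC50 fit.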 It counts as biochemical.
Chain of purified recombinant human GAC (GLS1) (O94925 other isoform, or with tags, fused parts or gaps): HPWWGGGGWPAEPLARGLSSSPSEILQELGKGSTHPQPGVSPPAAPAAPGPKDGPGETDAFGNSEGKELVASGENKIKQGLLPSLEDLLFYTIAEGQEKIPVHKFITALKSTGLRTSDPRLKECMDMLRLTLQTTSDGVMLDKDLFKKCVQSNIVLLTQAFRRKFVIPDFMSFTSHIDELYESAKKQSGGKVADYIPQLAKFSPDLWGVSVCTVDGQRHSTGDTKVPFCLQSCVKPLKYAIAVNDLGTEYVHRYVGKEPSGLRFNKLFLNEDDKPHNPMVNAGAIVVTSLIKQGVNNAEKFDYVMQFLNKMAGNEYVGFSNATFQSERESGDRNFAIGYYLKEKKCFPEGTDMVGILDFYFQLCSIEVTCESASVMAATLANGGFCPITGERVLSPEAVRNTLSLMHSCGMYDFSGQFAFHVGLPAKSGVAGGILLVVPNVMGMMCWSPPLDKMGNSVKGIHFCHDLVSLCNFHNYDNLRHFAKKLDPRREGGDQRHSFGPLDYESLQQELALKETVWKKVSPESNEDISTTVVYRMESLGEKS
Conditions: not given
With `O=C(CN1CCC(F)(F)C1)Nc1cn(CCCCn2cc(C(=O)NCc3ccccn3)nn2)nn1` [Example 325, 1-(4-{4-[2-(3,3-difluoropyrrolidin-1-yl)acetamido]-1H-1,2,3-triazol-1-yl}butyl)-N-(pyridin-2-ylmethyl)-1H-1,2,3-triazole-4-carboxamide], the IC50 lay in the range of 500 to 5000 nM.

Turning to `O=C(CN1CCC(F)(F)CC1)Nc1cn(CCCCn2cc(C(=O)NCc3ccccn3)nn2)nn1` [Example 326, 1-(4-{4-[2-(4,4-difluoropiperidin-1-yl)acetamido]-1H-1,2,3-triazol-1-yl}butyl)-N-(pyridin-2-ylmethyl)-1H-1,2,3-triazole-4-carboxamide], the IC50 is 500 to 5000 nM.

Consider `O=C(Cc1cccc(OC(F)(F)F)c1)Nc1cn(CCCCn2cc(C(=O)NCc3cc(OC(F)(F)F)ccc3F)nn2)nn1` [Example 333, N-{[2-fluoro-5-(trifluoromethoxy)phenyl]methyl}-1-[4-(4-{2-[3-(trifluoromethoxy)phenyl]acetamido}-1H-1,2,3-triazol-1-yl)butyl]-1H-1,2,3-triazole-4-carboxamide], for which the IC50 lay within 500 to 5000 nM.

As to `Cc1ccc(CNC(=O)c2cn(CCCCn3cc(NC(=O)CN4CC(F)C4)nn3)nn2)cn1` [Example 348, 1-(4-{4-[2-(3-fluoroazetidin-1-yl)acetamido]-1H-1,2,3-triazol-1-yl}butyl)-N-[(6-methylpyridin-3-yl)methyl]-1H-1,2,3-triazole-4-carboxamide], the IC50 was in the range of 500 to 5000 nM.

Turning to `O=C(CN1CC(F)C1)Nc1cn(CCCCn2cc(C(=O)NCc3cc(Cl)ccc3F)nn2)nn1` [Example 349, N-[(5-chloro-2-fluorophenyl)methyl]-1-(4-{4-[2-(3-fluoroazetidin-1-yl)acetamido]-1H-1,2,3-triazol-1-yl}butyl)-1H-1,2,3-triazole-4-carboxamide], the IC50 lay in the range of 100 to 500 nM.

As for `Cc1ccc(CNC(=O)c2cn(CCCCn3cc(NC(=O)CN4CC(F)(F)C4)nn3)nn2)cn1` [Example 351, 1-(4-{4-[2-(3,3-difluoroazetidin-1-yl)acetamido]-1H-1,2,3-triazol-1-yl}butyl)-N-[(6-methylpyridin-3-yl)methyl]-1H-1,2,3-triazole-4-carboxamide], the IC50 lay within 500 to 5000 nM.

Consider `Cc1ccc(CNC(=O)c2cn(CCCCn3cc(NC(=O)CN4CCC(F)(F)C4)nn3)nn2)cn1` [Example 354, 1-(4-{4-[2-(3,3-difluoropyrrolidin-1-yl)acetamido]-1H-1,2,3-triazol-1-yl}butyl)-N-[(6-methylpyridin-3-yl)methyl]-1H-1,2,3-triazole-4-carboxamide], for which the IC50 was 500 to 5000 nM.

In the case of `O=C(CN1CCC(F)(F)C1)Nc1cn(CCCCn2cc(C(=O)NCc3ncccc3F)nn2)nn1` [Example 357, 1-(4-{4-[2-(3,3-difluoropyrrolidin-1-yl)acetamido]-1H-1,2,3-triazol-1-yl}butyl)-N-[(3-fluoropyridin-2-yl)methyl]-1H-1,2,3-triazole-4-carboxamide], the half-maximal inhibitory concentration (IC50) is 500 to 5000 nM.

On to `Cc1ccc(CNC(=O)c2cn(CCCCn3cc(NC(=O)CN4CCC(F)(F)CC4)nn3)nn2)cn1` [Example 358, 1-(4-{4-[2-(4,4-difluoropiperidin-1-yl)acetamido]-1H-1,2,3-triazol-1-yl}butyl)-N-[(6-methylpyridin-3-yl)methyl]-1H-1,2,3-triazole-4-carboxamide], for which the IC50 was in the range of 500 to 5000 nM.

On to `O=C(CN1CCC(F)(F)CC1)Nc1cn(CCCCn2cc(C(=O)NCc3ncccc3F)nn2)nn1` [Example 361, 1-(4-{4-[2-(4,4-difluoropiperidin-1-yl)acetamido]-1H-1,2,3-triazol-1-yl}butyl)-N-[(3-fluoropyridin-2-yl)methyl]-1H-1,2,3-triazole-4-carboxamide], for which the IC50 is 500 to 5000 nM.

On to `O=C(Cc1ccccn1)Nc1cn(CC(F)CCn2cc(C(=O)NCc3ccccn3)nn2)nn1` (stereo not drawn) [Example 362, 1-(3-fluoro-4-{4-[2-(pyridin-2-yl)acetamido]-1H-1,2,3-triazol-1-yl}butyl)-N-(pyridin-2-ylmethyl)-1H-1,2,3-triazole-4-carboxamide], for which the IC50 was in the range of 500 to 5000 nM.

Consider `O=C(Cc1ccccn1)Nc1cn(CC(F)CCn2cc(C(=O)NCc3ncccc3F)nn2)nn1` (stereo not drawn) [Example 365, 1-(3-fluoro-4-{4-[2-(pyridin-2-yl)acetamido]-1H-1,2,3-triazol-1-yl}butyl)-N-[(3-fluoropyridin-2-yl)methyl]-1H-1,2,3-triazole-4-carboxamide], for which the half-inhibitory concentration (IC50) lay in the range of 500 to 5000 nM.

Regarding `Cc1ccc(CNC(=O)c2cn(CCC(F)Cn3cc(NC(=O)CN4CC(F)C4)nn3)nn2)cn1` (stereo not drawn) [Example 374, 1-(3-fluoro-4-{4-[2-(3-fluoroazetidin-1-yl)acetamido]-1H-1,2,3-triazol-1-yl}butyl)-N-[(6-methylpyridin-3-yl)methyl]-1H-1,2,3-triazole-4-carboxamide], the concentration for half-maximal inhibition (IC50) lay in the range of 100 to 500 nM.

The subject of the next assay is A549 cells. As to the kind of experiment: Proliferation Assay (A549 viability, Cell Titer Fluor, 72 hours). It counts as cell-based. The following applies: Homo sapiens, A549, 72 h. As for the experimental part:
A549 cells were routinely maintained in RPMI 1640 media (Gibco catalog number 11875-093) supplemented with 10% dialyzed fetal bovine serum using a humidified incubator (37° C., 5% CO2 and ambient O2). In preparation for the viability assay, cells were inoculated into 384-well black CulturPlates (Perkin Elmer) at a density of 1000 cells/well in a volume of 40 uL. Following a 24-hour incubation at 37° C., 5% CO2 and ambient O2, cells were treated with compound (10 uL) in a final DMSO concentration of 0.5% (v/v). The microplates were then incubated for 72 hours (37° C., 5% CO2 and ambient O2). Cell Titer Fluor (Promega) was subsequently added (10 uL of 6× reagent) and mixed for 15 minutes at room temperature. The plates were then incubated for 30 minutes (37° C., 5% CO2 and ambient O2) and fluorescence was subsequently read on the Perkin Elmer Envision plate reader. IC50 values were calculated using a four-parameter logistic curve fit.
Non-limiting examples include the following compounds and pharmaceutically acceptable salts thereof. […] “ND” indicates no data.
Consider `O=C(Cc1ccccc1)Nc1ccc(CCCCn2cc(C(=O)NCc3ccccc3)nn2)nn1` [Example 5, N-Benzyl-1-(4-(6-(2-phenylacetamido)pyridazin-3-yl)butyl)-1H-1,2,3-triazole-4-carboxamide], for which the EC50 is < 100 nM.

Turning to `O=C(NCc1ccccc1)c1cn(CCCCc2nnc(C(=O)NCc3cccc(OC(F)(F)F)c3)s2)nn1` [Example 39, 5-{4-[4-(benzylcarbamoyl)-1H-1,2,3-triazol-1-yl]butyl}-N-{[3-(trifluoromethoxy)phenyl]methyl}-1,3,4-thiadiazole-2-carboxamide], the EC50 was in the range of 100 to 500 nM.

In the case of `CC(C)NC(=O)c1nnc(CCCCn2cc(C(=O)NCc3cccc(OC(F)(F)F)c3)nn2)s1` [Example 43, N-(propan-2-yl)-5-{4-[4-({[3-(trifluoromethoxy)phenyl]methyl}carbamoyl)-1H-1,2,3-triazol-1-yl]butyl}-1,3,4-thiadiazole-2-carboxamide], the EC50 lay in the range of 100 to 500 nM.

The compound `CC(C)CNC(=O)c1nnc(CCCCn2cc(C(=O)NCc3cccc(OC(F)(F)F)c3)nn2)s1` [Example 44, N-(2-methylpropyl)-5-{4-[4-({[3-(trifluoromethoxy)phenyl]methyl}carbamoyl)-1H-1,2,3-triazol-1-yl]butyl}-1,3,4-thiadiazole-2-carboxamide] showed an EC50 of 100 to 500 nM.

For the compound `O=C(NCc1cc(C2CC2)ccn1)c1cn(CCC(F)Cn2cc(C(=O)NCc3cccc(C4CC4)c3)nn2)nn1` (stereo not drawn) [Example 134, 1-[4-(4-{[(3-cyclopropylphenyl)methyl]carbamoyl}-1H-1,2,3-triazol-1-yl)-3-fluorobutyl]-N-[(4-cyclopropylpyridin-2-yl)methyl]-1H-1,2,3-triazole-4-carboxamide], the EC50 is < 100 nM.

In the case of `CNC(=O)c1cn(CCCCc2ccc(NC(=O)Cc3cccc(OC(F)(F)F)c3)nn2)nn1` [Example 157, N-methyl-1-(4-(6-(2-(3-(trifluoromethoxy)phenyl)acetamido)pyridazin-3-yl)butyl)-1H-1,2,3-triazole-4-carboxamide], the EC50 is 100 to 500 nM.

In turn, `CNC(=O)c1cn(CCCCc2ccc(NC(=O)Cc3ccccn3)nn2)nn1` [Example 167, N-methyl-1-(4-{6-[2-(pyridin-2-yl)acetamido]pyridazin-3-yl}butyl)-1H-1,2,3-triazole-4-carboxamide] returned an EC50 of 100 to 500 nM.

In the case of `O=C(Cc1ccccn1)Nc1ccc(CCCCn2cc(C(=O)NCc3cccc(OC(F)(F)F)c3)nn2)nn1` [Example 169, 1-(4-{6-[2-(pyridin-2-yl)acetamido]pyridazin-3-yl}butyl)-N-{[3-(trifluoromethoxy)phenyl]methyl}-1H-1,2,3-triazole-4-carboxamide], the EC50 was < 100 nM.
